Measurements: publication PMC7887336, “Altered functional properties of the codling moth Orco mutagenized in the intracellular loop-3” (Scientific Reports, 2021)
Where “and” joins values, the source holds several entries; their conditions need not be identical. Equal values may be shown once.

Assays:
[1] = system: CpomOrco+OR6a; assay: VUAA1 responsiveness (Fluo4 +) of HEK293A cells co-transfected with CpomOrco and CpomOR6a; assay type: cell-based, Cydia pomonella; conditions: for Fluo4 + cells, %: of bright field cells
Protocol: (§1) HEK293 cells lines (HEK293A/HEK293T) were grown in HEK cell media [Dulbecco's modified Eagle's medium containing 10% fetal bovine serum (MP Biomedicals, Solon, OH, USA), 2.0 mM L-glutamine, and 100 µg/mL penicillin/streptomycin (Invitrogen)] at 37 °C and 5% CO2. To test transient expression of wild type CpomOrco and CpomOrco^Q417H variant for calcium imaging and patch-clamp recording, 35-mm petri dishes containing semi-confluent HEK293A cells were transiently transfected. Cells were transfected with 0.6 µg of pcDNA40-DEST carrying the coding sequence of the CpomOrco variant (depending on the experiments). To report expression for calcium imaging experiments, 0.6 µg of a separate plasmid DNA [pEBFP2-Nuc, a gift from Robert Campbell (Addgene plasmid # 1489352)] carrying the coding sequence for a blue fluorescent protein (EBFP) was co-transfected. To report expression in patch-clamp recordings, 1.0 µg of a separate plasmid DNA (pXOOM, Clontech, Mountain View, CA, USA) carrying the coding sequence for a green fluorescent protein (GFP) was co-transfected. Expressions of fluorescent reporter genes were under the regulation of the same promoter for Cpom-genes (CMV). For specific experiments, co-transfections were conducted combining an additional 1.2 µg of pcDNA40-DEST/CpomOR3 or pcDNA40-DEST/CpomOR6a, as we previously described. […]
(§2) Fluorescence imaging was performed using settings optimized for Imaging Workbench 6 software (INDEC BioSystems, Santa Clara, CA, USA)[14]. […] Each cell was assigned a region of interest (ROI) and changes in fluorescence intensity within each ROI were measured and expressed as the fractional change in fluorescence intensity (dF). Stored time series image stacks were analysed off-line using Imaging Workbench 6, Clampfit 10.5 (Molecular Devices) and SigmaPlot 11 (Systat Software Inc., San Jose, CA, USA). […]

[2] = target: CpomOrco (Cydia pomonella, UniProt H9A5M2); assay: Calcium imaging (Fluo-4) of HEK293A cells transfected with wild-type CpomOrco, VUAA1 stimulation; assay type: cell-based; conditions: for Fluo4 + cells, %: of bright field cells; for EC50 / Hill coefficient / maximum response (Hill fit of calcium response amplitudes): HEK293A, CpomOrco
Chain of CpomOrco (H9A5M2 entry or part of it): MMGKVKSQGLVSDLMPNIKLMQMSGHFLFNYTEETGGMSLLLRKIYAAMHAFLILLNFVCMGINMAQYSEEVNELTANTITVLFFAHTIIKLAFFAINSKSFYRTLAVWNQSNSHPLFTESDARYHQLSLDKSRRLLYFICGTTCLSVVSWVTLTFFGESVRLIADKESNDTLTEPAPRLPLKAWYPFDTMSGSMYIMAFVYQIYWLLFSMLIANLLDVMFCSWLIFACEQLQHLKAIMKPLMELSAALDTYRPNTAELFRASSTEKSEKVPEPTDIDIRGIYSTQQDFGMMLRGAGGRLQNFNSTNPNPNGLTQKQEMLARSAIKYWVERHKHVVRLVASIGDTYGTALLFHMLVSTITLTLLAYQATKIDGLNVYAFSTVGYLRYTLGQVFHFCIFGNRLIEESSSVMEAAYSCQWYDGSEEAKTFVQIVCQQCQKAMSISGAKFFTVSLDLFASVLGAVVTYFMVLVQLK
Protocol: (§3) HEK293 cells lines (HEK293A/HEK293T) were grown in HEK cell media [Dulbecco's modified Eagle's medium containing 10% fetal bovine serum (MP Biomedicals, Solon, OH, USA), 2.0 mM L-glutamine, and 100 µg/mL penicillin/streptomycin (Invitrogen)] at 37 °C and 5% CO2. To test transient expression of wild type CpomOrco and CpomOrco^Q417H variant for calcium imaging and patch-clamp recording, 35-mm petri dishes containing semi-confluent HEK293A cells were transiently transfected. Cells were transfected with 0.6 µg of pcDNA40-DEST carrying the coding sequence of the CpomOrco variant (depending on the experiments). To report expression for calcium imaging experiments, 0.6 µg of a separate plasmid DNA [pEBFP2-Nuc, a gift from Robert Campbell (Addgene plasmid # 1489352)] carrying the coding sequence for a blue fluorescent protein (EBFP) was co-transfected. To report expression in patch-clamp recordings, 1.0 µg of a separate plasmid DNA (pXOOM, Clontech, Mountain View, CA, USA) carrying the coding sequence for a green fluorescent protein (GFP) was co-transfected. Expressions of fluorescent reporter genes were under the regulation of the same promoter for Cpom-genes (CMV). For specific experiments, co-transfections were conducted combining an additional 1.2 µg of pcDNA40-DEST/CpomOR3 or pcDNA40-DEST/CpomOR6a, as we previously described. Co-transfections with CpomOR3 were performed for dose–response experiments to pear ester: CpomOR3 was co-expressed with CpomOrco variants by the use of HEK293T (Fig. 3b); given the reported functional co-expression data of the CpomOrco + OR3 heteromers by the use of these specific cells. In brief, transfection DNAs were dissolved in 100 µL sterile DMEM, mixed with 3.0 µL Calfectin (SignaGen, Rockville, MD, USA) following the recommended protocol. Transfections were conducted overnight for up to 18 h, HEK cell media was replaced with 2.0 mL fresh media to incubate cells at 37 °C for up to 6–8 h, at which point part of the cell culture was spread in the middle of a 35-mm plate as individual cells or small clusters and rinsed at the sides with 2.0 mL fresh HEK media. After splitting, cells were allowed to recover for at least 1 day prior to calcium imaging.
Activation of HEK293 cells transfected with CpomOrco variants was tested using the same procedures we previously described. Petri dishes were incubated for 1 h at room temperature in 1.0 mL HEK Ca^++ Ringer (mM: 140 NaCl, 5.0 KCl, 2.0 CaCl2, 10 HEPES, pH 7.4) containing the fluorescent calcium indicator Fluo-4AM (Invitrogen) at 5–15 µM prepared with 0.2–0.06% Pluronic F-127 (Invitrogen). To monitor intracellular pH, HEK293A cells were loaded with 10.0 µL BCECF dye (Anaspec, Fremont, CA).
As reported in Cattaneo et al.[14], the buffer was removed after incubation, cells were rinsed with 4.0 mL fresh HEK Ca^++ Ringer and placed on the stage of an inverted microscope (Olympus IX-71, Olympus Corp., Tokyo, Japan) equipped with a cooled CCD camera (ORCA R2, Hamamatsu, Hamamatsu City, Japan). Cells were continuously superfused with Ca^++ Ringer using two gravity fed perfusion contours. The […] contour washing the cells (~ 250 µL/min) was switched rapidly to the stimulus contour using a multi-channel rapid solution changer (RSC-160, Bio-Logic, Claix, France) under the software control of Clampex 9 (Molecular Devices, Sunnyvale, CA, USA).
Fluorescence imaging was performed using settings optimized for Imaging Workbench 6 software (INDEC BioSystems, Santa Clara, CA, USA)[14]. The non-responsive cells were not included in these analyses. Each cell was assigned a region of interest (ROI) and changes in fluorescence intensity within each ROI were measured and expressed as the fractional change in fluorescence intensity (dF). Stored time series image stacks were analysed off-line using Imaging Workbench 6, Clampfit 10.5 (Molecular Devices) and SigmaPlot 11 (Systat Software Inc., San Jose, CA, USA). Dose–response curves were approximated using Hill equation. […]

[3] = system: CpomOrco^Q417H+OR6a; assay: VUAA1 responsiveness (Fluo4 +) of HEK293A cells co-transfected with CpomOrco^Q417H and CpomOR6a; assay type: cell-based, Cydia pomonella; conditions: for Fluo4 + cells, %: of bright field cells
Protocol: as §1, §2

[4] = target: CpomOrco^Q417H (Cydia pomonella, UniProt H9A5M2, Q417H); assay: Whole-cell voltage-clamp recordings of HEK293A cells transfected with CpomOrco^Q417H, VUAA1; assay type: cell-based; conditions: for EC50: EC50 (K1/2)
Chain of CpomOrco^Q417H (H9A5M2 entry or part of it Q417H): as the sequence (H9A5M2 entry or part of it) above, with Q417H counted along it
Protocol: as §3
Electrophysiological experiments were performed according with the same procedures we previously described. Patch pipettes were fabricated from borosilicate capillary glass (BF150-86–10, Sutter Instrument, CA, USA) using a Flaming-Brown micropipette puller (P-87, Sutter Instrument). Only patches with initial cell-attached seal resistance estimated higher than 1.0 GOhms were used in the experiments. Intracellular (pipette) solution for whole-cell experiments was KCl 140 mM, EGTA 1 mM, Hepes 5 mM, MES 5 mM, pH 8.0 or pH 5.5 (depending on the experiment) adjusted with either NaOH or HCl, standard Na^+ 140 mM. bath solution was usually NaCl 140 mM, EGTA 0.1 mM, Hepes 10 mM, pH 7.4 (adjusted with Tris-base or NaOH). VUAA1 doses (0–1000 µM) were added to the extracellular test solutions.
As described in methods of Cattaneo et al.[14], GFP positive HEK293A cells were visualized using either an Axiovert 100 inverted microscope (Carl Zeiss, Inc., München, Germany) equipped with a mercury vapour compressed-arc lamp (HBO100) coupled to widefield fluorescence filter set (1114–459, Carl Zeiss, Inc.) or Olympus IX-71 inverted microscope described above (Olympus Corp.). The Orco channel-mediated currents were investigated using whole-cell patch-clamp recordings. The currents were measured with a 200B patch-clamp amplifier (Molecular Devices) and a digital interface (Digidata 1320A, Molecular Devices), low pass filtered at 5.0 kHz, sampled at 1–2 kHz. Analysis of the data was carried out using pCLAMP 9.2/10.5 software (Molecular Devices) and SigmaPlot 11 (Systat Software Inc). […]

[5] = after 30 min incubation at low pHe = 4.7
[6] = intracellular pH = 5.5, extracellular pH 7.4, -50 mV
[7] = intracellular pH = 8.0, extracellular pH 7.4, -50 mV

CCc1ccc(NC(=O)CSc2nnc(-c3cccnc3)n2CC)cc1 [VUAA1, acetamide,N-(4-ethylphenyl)-2-[[4-ethyl-5-(3-pyridinyl)-4H-1,2,4-triazol-3-yl]thio]-]
Fluo4 + cells, % ([1]; 800 µM VUAA1, Experiment 3, CpomOrco+OR6a): 48,34% | Fluo4 + cells, % ([1]; 800 µM VUAA1, Experiment 4, CpomOrco+OR6a): 49,71% | percentage of VUAA-responsive cells ([1]; 800 µM VUAA1, HEK293A co-transfected with CpomOrco, CpomOR6a and EBFP, range of two experiments): 48.34–49.71% | Fluo4 + cells, % ([2]; 800 µM VUAA1, Experiment 1, CpomOrco): 30,99% | Fluo4 + cells, % ([2]; 800 µM VUAA1, Experiment 2, CpomOrco): 35,06% | percentage of cells sensitive to VUAA1 (relative to total number of visible cells) ([2]; 800 µM VUAA1, HEK293A transfected with CpomOrco and EBFP, range of two experiments): 30.99–35.06% | EC50 [2, 5]: ~260 µM | Hill coefficient [2, 5]: ~ 2.5 ± 4.3 | maximum response (Hill fit of calcium response amplitudes) ([2]; after 30 min incubation at low pHe = 4.7, n = 84, constraints applied to fit): ~ 1.3 ± 0.7 ∆F and 1.3 ∆F | Hill coefficient ([2]; control pH conditions (pH 7.4)): ~ 2.4 ± 0.1 | EC50 ([2]; control pH conditions (pH 7.4), Hill fit): ~157 µM | maximum response (Hill fit of calcium response amplitudes) ([2]; control pH conditions (pH 7.4), N = 123 cells): ~ 6.3 ∆F and ~ 6.3 ± 0.1 ∆F and 6.3 ∆F | Fluo4 + cells, % ([3]; 800 µM VUAA1, Experiment 3, CpomOrcoQ417H+OR6a): 8,41% | Fluo4 + cells, % ([3]; 800 µM VUAA1, Experiment 4, CpomOrcoQ417H+OR6a): 10,33% | percentage of VUAA1 sensitive cells ([3]; 800 µM VUAA1, HEK293A co-transfected with CpomOrco^Q417H, CpomOR6a and EBFP, range of two experiments): 8.41–10.33% | EC50 [4, 6]: ~550 µM | EC50 [4, 7]: ~615 µM | h (Hill equation) ([4]; intracellular pH = 5.5): ~ 4 ± 1.4 | number of cells sensitive to VUAA1 ([4]; intracellular pH = 5.5, GFP positive cells tested): 6 out of 9 | Imax (whole-cell current amplitude, Hill fit) [4, 6]: ~216 pA and ~ 216 ± 23 pA | h (Hill equation) ([4]; intracellular pH = 8.0): ~ 5 ± 1.9 | number of cells sensitive to VUAA1 ([4]; intracellular pH = 8.0, GFP positive cells tested): 11 out of 17 | Imax (whole-cell current amplitude, Hill fit) [4, 7]: ~ 332 pA and ~ 332 ± 44 pA
